Values of other authors as cited in patent US5994297A, “Therapy for Staphylococcus aureus” (Eli Lilly and Company, priority 1998, dated 1999).

System: Staphylococcus aureus strain "Mu50"
Conditions: Staphylococcus aureus strain Mu50 (MRSA, reduced glycopeptide sensitivity); Hiramatsu et al., J. of Antimicrobial Chemotherapy, 1997, 40, 135-146

CN[C@H](CC(C)C)C(=O)N[C@H]1C(=O)N[C@@H](CC(N)=O)C(=O)N[C@H]2C(=O)N[C@H]3C(=O)N[C@H](C(=O)N[C@H](C(=O)O)c4cc(O)cc(O)c4-c4cc3ccc4O)[C@H](O)c3ccc(c(Cl)c3)Oc3cc2cc(c3O[C@@H]2O[C@H](CO)[C@@H](O)[C@H](O)[C@H]2O[C@H]2C[C@](C)(N)[C@H](O)[C@H](C)O2)Oc2ccc(cc2Cl)[C@H]1O [vancomycin]
vancomycin MIC: 8 µg/mL
